Source: article PMC4551947 (Nucleic Acids Research, 2015)

B1: Escherichia coli TrmJ (EcTrmJ), tRNA Xm32 methyltransferase, full-length (enzyme, Escherichia coli K-12 MG1655, UniProt P0AE01 1-246, looked up)
chain: MLQNIRIVLVETSHTGNMGSVARAMKTMGLTNLWLVNPLVKPDSQAIALAAGASDVIGNAHIVDTLDEALAGCSLVVGTSARSRTLPWPMLDPRECGLKSVAEAANTPVALVFGRERVGLTNEELQKCHYHVAIAANPEYSSLNLAMAVQVIAYEVRMAWLATQENGEQVEHEETPYPLVDDLERFYGHLEQTLLATGFIRENHPGQVMNKLRRLFTRARPESQELNILRGILASIEQQNKGNKAE

What was measured:
[1] = target: T1, NTD (isolated N-terminal SPOUT domain of EcTrmJ) (Escherichia coli, UniProt P0AE01); assay: isothermal titration calorimetry; type: binding; conditions: 25 °C, 20 mM Tris-HCl pH 7.5, 100 mM NaCl, 10 mM MgCl2
T1 sequence (P0AE01 1-170): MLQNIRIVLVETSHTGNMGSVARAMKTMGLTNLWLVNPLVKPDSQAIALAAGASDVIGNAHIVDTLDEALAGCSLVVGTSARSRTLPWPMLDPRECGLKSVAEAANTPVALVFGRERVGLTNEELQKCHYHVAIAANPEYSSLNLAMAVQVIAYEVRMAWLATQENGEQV

crystal structure = target: the molecule itself; assay: crystal structure

Molecule | KD [1] | stoichiometry N (crystal structure)
Nc1ncnc2c1ncn2[C@@H]1O[C@H](CSCC[C@H](N)C(=O)O)[C@@H](O)[C@H]1O [SAH] | NTD alone could bind SAH as effectively as full-length EcTrmJ | 
B1 |  | 2
